Here are results for 15 compounds from patent US10898481B2 (priority 2018, dated 2021).

pIC50: −log10 of the molar value. Read-outs that look alike come from different tables or passages of the source. Bounds are passed on as bounds.

One assay concerns the target hA2b/CHO (Homo sapiens (Human), UniProt P29275). Description: cAMP inhibition assay in hA2b/CHO cells, 10 μM adenosine.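 Note: cells exposed to compound 30 min at 37 °C, then stimulated with adenosine a further 30 min, cAMP read after 60 min at room temperature.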 The class given is cell-based. Particulars: read-out: cAMP & FLIPR IC50 (nM) hA2b.
Assay [1] addresses hADORA1/CHO (hA1 expressing) cells (Homo sapiens (Human), UniProt P30542). In words: cell-based. As to conditions: 10 μM adenosine.
A further assay deals with hA2a (Homo sapiens (Human), UniProt P29274). In words: Radioligand binding to hA2a membrane with [3H]-CGS21680. As to conditions: read-out: Binding Affinity (IC50 nM) hA2a. The source says: (§1) The empty boxes in the tables below indicate data not collected yet.
Sequence of hA2a (P29274 whole entry): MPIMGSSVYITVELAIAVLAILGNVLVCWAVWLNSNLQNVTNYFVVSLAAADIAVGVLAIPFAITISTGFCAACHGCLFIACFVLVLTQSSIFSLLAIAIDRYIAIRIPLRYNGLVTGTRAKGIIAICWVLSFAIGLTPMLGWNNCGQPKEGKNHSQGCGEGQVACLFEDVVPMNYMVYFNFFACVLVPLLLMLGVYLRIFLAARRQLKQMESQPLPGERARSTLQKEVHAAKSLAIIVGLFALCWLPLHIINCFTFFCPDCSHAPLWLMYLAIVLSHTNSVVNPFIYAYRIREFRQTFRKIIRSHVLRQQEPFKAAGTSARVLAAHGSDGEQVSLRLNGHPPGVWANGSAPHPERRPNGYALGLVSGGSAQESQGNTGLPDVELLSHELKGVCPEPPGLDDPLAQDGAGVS
In a further assay the target is hA2a/CHO (Homo sapiens (Human), UniProt P29274). Description: cAMP inhibition assay in hA2a/CHO cells, 10 μM adenosine.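 Note: compounds added to cells 30 min ahead of adenosine, then a further 30 min at 37 °C with adenosine before cAMP detection.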 Format: cell-based. Particulars: read-out: cAMP & FLIPR IC50 (nM) hA2a.
Sequence of hA2a/CHO (P29274 whole entry): as above
The target in the next assay is hA3/CHO (Homo sapiens (Human), UniProt P0DMS8). Description: cell-based. How it is done: hA2a/CHO, hA2b/CHO, hA3/CHO and mA2a/CHO (Genscript) were plated at 5×10^3 cells/well into 384-well polystyrene plates at the day of experiment. Compounds were pre-incubated with cells for 30 min at 37° C., 5% CO2. Then 10 μM adenosine was added to the cells and incubated for 30 min at 37° C., 5% CO2. Detection reagent (CISBIO) was added and the plates were incubated for 60 min at room temperature. The signal was captured by Envision.
Sequence of hA3/CHO (P0DMS8 whole entry): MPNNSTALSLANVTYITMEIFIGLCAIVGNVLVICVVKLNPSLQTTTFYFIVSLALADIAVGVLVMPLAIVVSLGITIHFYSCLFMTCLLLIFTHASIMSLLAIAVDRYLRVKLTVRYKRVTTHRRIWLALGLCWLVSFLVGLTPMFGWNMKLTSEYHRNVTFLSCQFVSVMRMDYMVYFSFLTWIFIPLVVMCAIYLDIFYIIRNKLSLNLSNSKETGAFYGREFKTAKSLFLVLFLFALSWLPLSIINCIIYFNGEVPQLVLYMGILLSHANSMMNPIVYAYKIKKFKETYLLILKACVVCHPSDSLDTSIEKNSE

For another assay, the target named is mA2a/CHO (Mus musculus (Mouse), UniProt Q60613). Description: cAMP inhibition assay in mA2a/CHO cells, 10 μM adenosine.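 Note: compounds preincubated 30 min at 37 °C before the adenosine challenge, then 30 min further stimulation, readout after 60 min detection reagent incubation at room temperature in 384-well plates.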 The class given is cell-based. As to conditions: read-out: cAMP & FLIPR IC50 (nM) mA2a.
Sequence of mA2a/CHO (Q60613 whole entry): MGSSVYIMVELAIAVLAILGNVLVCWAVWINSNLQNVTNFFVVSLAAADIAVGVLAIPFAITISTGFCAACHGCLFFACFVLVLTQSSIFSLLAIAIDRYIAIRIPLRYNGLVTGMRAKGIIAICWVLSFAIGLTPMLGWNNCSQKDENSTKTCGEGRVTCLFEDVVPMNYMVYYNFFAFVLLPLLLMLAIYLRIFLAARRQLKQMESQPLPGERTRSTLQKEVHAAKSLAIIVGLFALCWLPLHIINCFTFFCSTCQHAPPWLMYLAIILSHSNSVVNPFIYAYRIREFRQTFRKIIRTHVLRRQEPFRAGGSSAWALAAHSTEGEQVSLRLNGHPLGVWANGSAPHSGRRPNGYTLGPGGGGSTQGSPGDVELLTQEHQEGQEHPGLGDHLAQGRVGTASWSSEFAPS
The next assay addresses hA1 (Homo sapiens (Human), UniProt P30542). As to conditions: hA1 membrane, [3H]-DPCPX; read-out: Binding Affinity (IC50 nM) hA1.
Text: as §1

Setting [2] is: FLIPR inhibition, read-out: cAMP & FLIPR IC50 (nM) hA1.
Where [3] appears, read: cAMP & FLIPR IC50 (nM) hA1, FLIPR inhibition.

Sequence of hA2b/CHO (P29275 whole entry): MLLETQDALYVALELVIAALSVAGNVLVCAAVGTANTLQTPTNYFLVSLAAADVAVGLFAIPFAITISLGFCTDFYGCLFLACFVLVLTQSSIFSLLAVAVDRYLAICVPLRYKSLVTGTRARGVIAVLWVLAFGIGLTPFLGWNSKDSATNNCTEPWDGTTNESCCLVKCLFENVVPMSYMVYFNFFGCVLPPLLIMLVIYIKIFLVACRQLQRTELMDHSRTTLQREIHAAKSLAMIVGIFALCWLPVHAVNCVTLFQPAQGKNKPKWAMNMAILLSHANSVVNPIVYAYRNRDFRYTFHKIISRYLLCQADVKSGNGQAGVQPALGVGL
Sequence of hA1 (P30542 whole entry): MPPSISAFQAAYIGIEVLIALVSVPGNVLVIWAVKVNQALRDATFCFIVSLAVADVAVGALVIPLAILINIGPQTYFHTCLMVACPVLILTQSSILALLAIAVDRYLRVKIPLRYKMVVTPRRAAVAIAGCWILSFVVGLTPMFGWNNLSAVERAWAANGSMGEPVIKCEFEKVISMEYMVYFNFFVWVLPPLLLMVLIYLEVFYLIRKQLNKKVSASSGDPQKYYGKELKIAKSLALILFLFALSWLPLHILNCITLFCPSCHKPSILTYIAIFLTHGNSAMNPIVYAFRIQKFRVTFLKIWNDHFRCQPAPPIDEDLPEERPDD
Sequence of hADORA1/CHO (hA1 expressing) cells (P30542 whole entry): as above

Usually IC50 stands for the concentration that gives 50% inhibition. Usually pIC50 stands for the IC50 on a negative log10 scale, so that one unit is a factor of ten. Regarding `Cn1cc(-c2nc(C(=O)NCc3ncccc3F)c(N)nc2-c2ncco2)ccc1=O` [Example 14, 3-amino-N-((3-fluoropyridin-2-yl)methyl)-6-(1-methyl-6-oxo-1,6-dihydropyridin-3-yl)-5-(oxazol-2-yl)pyrazine-2-carboxamide], the concentration for half-maximal inhibition (IC50) stood at 768 nM on hA2b/CHO; 10000 nM in assay [1] (setting [2]); 3.1 nM at hA2a; 98 nM on hA2a/CHO; 213 nM at mA2a/CHO. Besides, the pIC50 on hA3/CHO was at most 5.00.
Regarding `Cc1scnc1CNC(=O)c1nc(-c2ccc(=O)n(C)c2)c(-c2ncco2)nc1N` [Example 22, 3-amino-6-(1-methyl-6-oxo-1,6-dihydropyridin-3-yl)-N-((5-methylthiazol-4-yl)methyl)-5-(oxazol-2-yl)pyrazine-2-carboxamide], the IC50 on hA2b/CHO was 2550 nM; in assay [1] (setting [2]) it was 3380 nM; on hA2a it was 3.5 nM; at hA2a/CHO it was 60 nM; on mA2a/CHO it was 132 nM. At hA3/CHO, the pIC50 is at most 5.00.
Consider `Cn1cc(-c2nc(C(=O)NCc3cccc(N)n3)c(N)nc2-c2ncco2)ccc1=O` [Example 24, 3-amino-N-[(6-aminopyridin-2-yl)methyl]-6-(1-methyl-6-oxo-1,6-dihydropyridin-3-yl)-5-(1,3-oxazol-2-yl)pyrazine-2-carboxamide], for which the IC50 on hA2b/CHO came to 1460 nM; in assay [1] (setting [2]) it was 9360 nM; on hA2a, 11 nM; on hA2a/CHO, 199 nM; at mA2a/CHO it was 641 nM. This compound also had a pIC50 against hA3/CHO of at most 5.00.
With `CN(C)c1ccc(F)c(CNC(=O)c2nc(-c3ccc(=O)n(C)c3)c(-c3ncco3)nc2N)c1` [Example 27, 3-amino-N-(5-(dimethylamino)-2-fluorobenzyl)-6-(1-methyl-6-oxo-1,6-dihydropyridin-3-yl)-5-(oxazol-2-yl)pyrazine-2-carboxamide], the IC50 was at least 10000 nM on hA2b/CHO, 1770 nM in assay [1] (setting [2]), 60 nM at hA2a/CHO and 177 nM at mA2a/CHO. On hA3/CHO, this compound showed a pIC50 of at most 5.00.
As for `Cn1cc(-c2nc(C(=O)NCc3cccc(N4CCCC4)n3)c(N)nc2-c2ncco2)ccc1=O` [Example 28, 3-amino-6-(1-methyl-6-oxo-1,6-dihydropyridin-3-yl)-5-(1,3-oxazol-2-yl)-N-[[6-(pyrrolidin-1-yl)pyridin-2-yl]methyl]pyrazine-2-carboxamide], the 50% inhibitory concentration (IC50) at hA2b/CHO is at least 10000 nM; in assay [1] (setting [2]), 4900 nM; on hA2a/CHO, 129 nM; at mA2a/CHO, 160 nM. At hA3/CHO, this compound showed a negative logarithm of the IC50 (pIC50) of at most 5.00.
Take `Cn1cc(-c2nc(C(=O)NCc3c(F)cccc3F)c(N)nc2-c2ccc(F)cc2)ccc1=O` [Example 29, 3-amino-N-[(2,6-difluorophenyl)methyl]-5-(4-fluorophenyl)-6-(1-methyl-6-oxo-1,6-dihydropyridin-3-yl)pyrazine-2-carboxamide]: the concentration for half-maximal inhibition (IC50) came out at 103 nM on hA2b/CHO; 66 nM in assay [1] (setting [2]); 2.3 nM on hA2a; 6.8 nM on hA2a/CHO; 60 nM on mA2a/CHO. The pIC50 against hA3/CHO is at most 5.00.
Turning to `Cn1cc(-c2nc(C(=O)NCc3ncccc3OC(F)(F)F)c(N)nc2-c2ncco2)ccc1=O` [Example 30, 3-amino-6-(1-methyl-6-oxo-1,6-dihydropyridin-3-yl)-5-(1,3-oxazol-2-yl)-N-[[3-(trifluoromethoxy)pyridin-2-yl]methyl]pyrazine-2-carboxamide], the IC50 stood at 603 nM on hA2b/CHO, 214 nM in assay [1] (setting [2]), 45 nM on hA2a/CHO and 47 nM at mA2a/CHO. The compound also had a pIC50 at hA3/CHO of at most 5.00.
For `Nc1nc(-c2ncco2)c(-c2ccc(=O)n(C(F)F)c2)nc1C(=O)NCc1ncccc1F` [Example 31, 3-amino-6-[1-(difluoromethyl)-6-oxo-1,6-dihydropyridin-3-yl]-N-[(3-fluoropyridin-2-yl)methyl]-5-(1,3-oxazol-2-yl)pyrazine-2-carboxamide], the IC50 on hA2b/CHO is 164 nM; in assay [1] (setting [2]) it was 35 nM; at hA2a/CHO, 34 nM; at mA2a/CHO it was 75 nM. Besides, the negative logarithm of the IC50 (pIC50) on hA3/CHO was at most 5.00.
For the compound `Nc1nc(-c2ncco2)c(-c2ccc3nccn3c2)nc1C(=O)NCc1c(F)cccc1F` [Example 32, 3-amino-N-[(2,6-difluorophenyl)methyl]-6-[imidazo[1,2-a]pyridin-6-yl]-5-(1,3-oxazol-2-yl)pyrazine-2-carboxamide], the IC50 at hA2b/CHO was 3 nM; in assay [1] (setting [2]), 494 nM; on hA2a/CHO, 0.2 nM; at mA2a/CHO, 2 nM. The compound further gave a pIC50 on hA3/CHO of at most 5.00.
On the same counts, the results for `CN(C)c1cccc(CNC(=O)c2nc(-c3ccc(=O)n(C)c3)c(-c3ncco3)nc2N)c1F` [Example 33, 3-amino-N-(3-(dimethylamino)-2-fluorobenzyl)-6-(1-methyl-6-oxo-1,6-dihydropyridin-3-yl)-5-(oxazol-2-yl)pyrazine-2-carboxamide] are at least 10000 nM, 3030 nM, 56 nM, 123 nM and at most 5.00.
For the compound `Nc1nc(-c2ncco2)c(-c2ccc3nncn3c2)nc1C(=O)NCc1c(F)cccc1F` [Example 34, 6-([1,2,4]triazolo[4,3-a]pyridin-6-yl)-3-amino-N-(2,6-difluorobenzyl)-5-(oxazol-2-yl)pyrazine-2-carboxamide], the half-inhibitory concentration (IC50) at hA2b/CHO was 330 nM; in assay [1] (setting [2]), 10000 nM; at hA2a, 3.7 nM; on hA2a/CHO it was 63 nM; at mA2a/CHO, 192 nM. The same compound had a negative-log IC50 (pIC50) on hA3/CHO of at most 5.00.
In the case of `Cn1cc(-c2nc(C(=O)NCc3c(F)cccc3F)c(N)nc2-n2nccn2)ccc1=O` [Example 35, 3-amino-N-(2,6-difluorobenzyl)-6-(1-methyl-6-oxo-1,6-dihydropyridin-3-yl)-5-(2H-1,2,3-triazol-2-yl)pyrazine-2-carboxamide], the IC50 on hA2b/CHO stood at 203 nM; in assay [1] (setting [2]) it was 112 nM; at hA2a, 3.2 nM; at hA2a/CHO, 15 nM; on mA2a/CHO it was 43 nM. In addition, the pIC50 on hA3/CHO was at most 5.00.
Take `Nc1nc(-c2ncco2)c(-c2ccc3[nH]cnc3c2)nc1C(=O)NCc1ncccc1F` [Example 47, 3-amino-6-(1H-1,3-benzodiazol-5-yl)-N-[(3-fluoropyridin-2-yl)methyl]-5-(1,3-oxazol-2-yl)pyrazine-2-carboxamide]: the IC50 amounted to 10000 nM in assay [1] (setting [3]) and 696 nM on hA1.
As to `Cn1cc(-c2nc(C(=O)NCc3nc(N)ccc3F)c(N)nc2-c2ncco2)ccc1=O` [Example 49, 3-amino-N-((6-amino-3-fluoropyridin-2-yl)methyl)-6-(1-methyl-6-oxo-1,6-dihydropyridin-3-yl)-5-(oxazol-2-yl)pyrazine-2-carboxamide], the half-inhibitory concentration (IC50) in assay [1] (setting [3]) worked out at 1710 nM; on hA1 it was 117 nM.
As to `Cc1cnc2ccc(-c3nc(C(=O)NCc4ncccc4F)c(N)nc3-c3ncco3)cn12` [Example 101, 3-amino-N-((3-fluoropyridin-2-yl)methyl)-6-(3-methylimidazo[1,2-a]pyridin-6-yl)-5-(oxazol-2-yl)pyrazine-2-carboxamide], the figures for the IC50 (in assay [1] (setting [2]); on hA1) were 45 nM and 5.6 nM, respectively.
